Experimental data reported in article PMC11597089, “Kratom Alkaloids: A Blood–Brain Barrier Specific Membrane Permeability Assay-Guided Isolation and Cyclodextrin Complexation Study” (Molecules, 2024).

How the values were obtained:
[1] = ACE complex stability, HP-γ-CD; format: physicochemical; conditions: hydroxypropylated-γ-CD DS~3, 30 mM phosphate buffer pH 7.4, 25 °C
Experimental: (§1) To investigate the CD complexation behavior of the four kratom alkaloids, we aimed to develop an ACE method for a systematic comparative study. […] To ensure sufficient buffer capacity and to avoid excessive current and Joule heat generation, the buffer concentration was set to 30 mM, and the applied voltage was 15 kV.
(§2) The ACE experiments were performed by using Agilent 7100 and HP^3DCE instruments (Agilent Technologies, Waldbronn, Germany). Untreated fused silica capillaries (total length of 48.5 cm, effective length of 40 cm, inner diameter of 50 μm) were purchased from Agilent Technologies. The new capillaries were conditioned with a 1 M NaOH wash for 1 h, followed by a 30 min wash each with 0.1 M NaOH and purified water. Prior to all runs, the capillary was preconditioned by rinsing with background electrolyte for 3 min. During the measurements, 30 mM phosphate buffer at pH 7.4 (30 mM Na2HPO4-NaOH) was used. The background electrolyte contained CDs at various concentrations. Stock solutions of the studied kratom alkaloids (mitragynine, paynantheine, speciogynine, speciociliatine) were prepared separately in methanol (1 mg/mL), and, right before the measurements, appropriate dilutions with purified water were used to prepare the sample solutions, applying 0.1% DMSO as the electroosmotic flow (EOF) marker. The samples were injected hydrodynamically at 40 mbar for 3 s. The positive polarity voltage was set to 15 kV, and the capillary was set to 25 °C. The electropherograms were recorded at four wavelengths (200 nm, 210 nm, 215 nm, and 220 nm), and the data were evaluated at 215 nm. In each case, three parallel measurements were performed. The measurements were evaluated using Origin and CEval software (v. 0.6i3).
(§3) In order to determine the complex stability constants that characterized the strength of the complexes, the first step was to determine the effective mobility of the analyte at specific CD concentrations. Triangular peaks caused by electromigration dispersion are often observed in ACE measurements. […]

[2] = ACE complex stability, CM-β-CD; format: physicochemical; conditions: carboxymethylated-β-CD DS~3, 30 mM phosphate buffer pH 7.4, 25 °C
Experimental: as §1, §2
(§4) In order to determine the complex stability constants that characterized the strength of the complexes, the first step was to determine the effective mobility of the analyte at specific CD concentrations. Triangular peaks caused by electromigration dispersion are often observed in ACE measurements.
(§5) Assuming a 1:1 complexation ratio and that the equilibrium CD concentration is almost equal to the total CD concentration, a relationship between the effective mobility relative to the EOF and the complex stability constant can be described by Function (4) (4) μeff=μA+μACDKstabCD/1+KstabCD where µeff is the effective mobility of the analyte, µA and µACD are the free and complexed analyte mobilities, [CD] is the concentration of the selector, and Kstab is the complex stability constant.
(§6) In order to calculate the exact, apparent, averaged complex stability constant values, viscosity correction and ionic strength correction were used.

[3] = ACE complex stability, CE-β-CD; format: physicochemical; conditions: carboxyethylated-β-CD DS~3, 30 mM phosphate buffer pH 7.4, 25 °C
Experimental: as §1, §2, §4, §5, §6

[4] = ACE complex stability, SP-β-CD; format: physicochemical; conditions: sulfopropylated-β-CD DS~2, 30 mM phosphate buffer pH 7.4, 25 °C
Experimental: as §1
(§7) The ACE experiments were performed by using Agilent 7100 and HP^3DCE instruments (Agilent Technologies, Waldbronn, Germany). Untreated fused silica capillaries (total length of 48.5 cm, effective length of 40 cm, inner diameter of 50 μm) were purchased from Agilent Technologies. The new capillaries were conditioned with a 1 M NaOH wash for 1 h, followed by a 30 min wash each with 0.1 M NaOH and purified water. Prior to all runs, the capillary was preconditioned by rinsing with background electrolyte for 3 min. During the measurements, 30 mM phosphate buffer at pH 7.4 (30 mM Na2HPO4-NaOH) was used. The background electrolyte contained CDs at various concentrations. […] The electropherograms were recorded at four wavelengths (200 nm, 210 nm, 215 nm, and 220 nm), and the data were evaluated at 215 nm. […] The measurements were evaluated using Origin and CEval software (v. 0.6i3). […]

[5] = ACE complex stability, HS-β-CD; format: physicochemical; conditions: heptakis-(6-O-sulfo)-β-CD, 30 mM phosphate buffer pH 7.4, 25 °C
Experimental: as §1, §2, §3

[6] = ACE complex stability, ODMS-γ-CD; format: physicochemical; conditions: octakis-(2,3-O-dimethyl, 6-O-sulfo)-γ-CD, 30 mM phosphate buffer pH 7.4, 25 °C
Experimental: as §1, §2, §4, §5, §6

[7] = ACE complex stability, MA-β-CD; format: physicochemical; conditions: mono-(6-N-amino-6-deoxy)-β-CD, positively charged, 30 mM phosphate buffer pH 7.4, 25 °C
Experimental: as §1, §2, §4, §5, §6

[8] = ACE complex stability, HPA-β-CD; format: physicochemical; conditions: mono-6^A-(3-hydroxy)propylamino-β-CD, positively charged, 30 mM phosphate buffer pH 7.4, 25 °C
Experimental: as §1, §2, §4, §5, §6

[9] = ACE complex stability, PIP-β-CD; format: physicochemical; conditions: 6-monodeoxy-6-piperidine-β-CD, positively charged, 30 mM phosphate buffer pH 7.4, 25 °C
Experimental: as §1, §2, §4, §5, §6

[10] = ACE complex stability, Sugammadex; format: physicochemical; conditions: octakis(6-deoxy-6-(2-carboxyethyl)thio)-γ-CD, 30 mM phosphate buffer pH 7.4, 25 °C
Experimental: as §1, §7

[11] = ACE complex stability, SBE-β-CD DS~10.4; format: physicochemical; conditions: sulfobutyl-ether-β-CD DS~10.4, 30 mM phosphate buffer pH 7.4, 25 °C
Experimental: as §1, §7

[12] = ACE complex stability, S-β-CD; format: physicochemical; conditions: sulfated-β-CD DS~13, 30 mM phosphate buffer pH 7.4, 25 °C
Experimental: as §1, §7

[13] = phase-solubility study, CM-β-CD; format: physicochemical; conditions: 30 mM phosphate buffer pH 7.4, room temperature
Experimental: (§8) Based on our ACE measurements, the promising CDs were selected for phase-solubility studies, along with the most widely used CD excipients, to investigate the effect of CD type and its concentration on mitragynine solubility. The experiments were conducted under conditions similar to those in the ACE measurements, applying 30 mM phosphate buffer (pH 7.4) and room temperature.
(§9) UV spectra and chromatograms were recorded at 200–400 nm, and the chromatogram obtained at 226 nm was used for quantitative analyses.
(§10) Solubility measurements were performed according to Higuchi and Connors. To each 1 mg mitragynine sample, the selected cyclodextrins were added. The final concentration of the CDs was in the range of 0–1 (m/v) %. Suspensions were shaken at room temperature for 24 h and filtered using 0.22 μm filters. The mitragynine concentration in the samples was determined by the above-described UHPLC-UV method. The solubility diagrams were constructed, and the stability constant (Kstab) and complexation efficacy (CE) were calculated using the following formulas:(5) Kstab=slope/S0(1−slope) (6) CE=slope/1−slope where S0 is the intrinsic solubility of a poorly soluble drug. The experiments were performed in a 30 mM phosphate buffer (pH 7.4).

[14] = phase-solubility study, Subetadex; format: physicochemical; conditions: 30 mM phosphate buffer pH 7.4, room temperature; for complexation efficacy (CE) with Subetadex: phase solubility, calculated from the linear part of the isotherm
Experimental: as §8
In the case of Subetadex, which had the highest solubility enhancement, an AN-type isotherm could be observed with a negative deviation from linearity, indicating a complex process: either the host ratio inside the complex increased, the solvent–solute interactions altered, or both contributed simultaneously.
as §9, §10

[15] = phase-solubility study, Sugammadex; format: physicochemical; conditions: 30 mM phosphate buffer pH 7.4, room temperature
Experimental: as §8, §9, §10

[16] = phase-solubility study, SBE-β-CD DS~6.5; format: physicochemical; conditions: 30 mM phosphate buffer pH 7.4, room temperature
Experimental: as §8, §9, §10

[17] = phase-solubility study, SBE-β-CD DS~10.4; format: physicochemical; conditions: 30 mM phosphate buffer pH 7.4, room temperature
Experimental: as §8, §9, §10

[18] = set-up: method as in PMID 25793541; conditions: at neutral pH; cited from earlier work

| Molecule | complex stability constant (Kstab) with HP-γ-CD [1] [M⁻¹] | complex stability constant (Kstab) with CM-β-CD [2] [M⁻¹] | complex stability constant (Kstab) with CE-β-CD [3] [M⁻¹] | complex stability constant (Kstab) with SP-β-CD [4] [M⁻¹] | complex stability constant (Kstab) with HS-β-CD [5] [M⁻¹] | complex stability constant (Kstab) with ODMS-γ-CD [6] [M⁻¹] | complex stability constant (Kstab) with MA-β-CD [7] [M⁻¹] | complex stability constant (Kstab) with HPA-β-CD [8] [M⁻¹] | complex stability constant (Kstab) with PIP-β-CD [9] [M⁻¹] | complex stability constant (Kstab) with Sugammadex [10] [M⁻¹] | further results |
| --- | --- | --- | --- | --- | --- | --- | --- | --- | --- | --- | --- |
| C=C[C@H]1CN2CCc3c([nH]c4cccc(OC)c34)[C@@H]2C[C@@H]1/C(=C\OC)C(=O)OC [Paynantheine, paynantheine] | 325 ± 50 | 185 ± 15 | 625 ± 40 | 335 ± 35 | 575 ± 35 | 280 ± 25 | < 10 | < 10 | < 10 |  |  |
| CC[C@@H]1CN2CCc3c([nH]c4cccc(OC)c34)[C@H]2C[C@@H]1/C(=C\OC)C(=O)OC [Speciociliatine, speciociliatine] | 220 ± 25 | 230 ± 20 | 160 ± 10 |  | 850 ± 30 | 230 ± 15 | < 10 | < 10 | < 10 | 700 ± 45 |  |
| CC[C@H]1CN2CCc3c([nH]c4cccc(OC)c34)[C@@H]2C[C@@H]1/C(=C\OC)C(=O)OC [Speciogynine, speciogynine] |  | 170 ± 15 | 375 ± 25 |  | 645 ± 30 | 250 ± 15 | < 10 | < 10 | < 10 |  | complex stability constant (Kstab) with SBE-β-CD DS~10.4 [11]: ~10,000 M^−1; complex stability constant (Kstab) with S-β-CD [12]: 970 ± 80 M⁻¹ |
| mitragynine | 230 ± 35 | 215 ± 20 | 210 ± 20 | 210 ± 25 |  | 80 ± 7 | < 10 | < 10 | < 10 | 2050 | Kstab with CM-β-CD (phase solubility) ([13]; 24 h, CD 0–1 (m/v) %): 300 M⁻¹; complexation efficacy (CE) with CM-β-CD ([13]; phase solubility): 0.0113; phase-solubility isotherm type with Subetadex [14]: AN-type; Kstab with Subetadex (phase solubility) ([14]; 24 h, CD 0–1 (m/v) %): 1730 M⁻¹; complexation efficacy (CE) with Subetadex [14]: 0.0650; complexation efficacy (CE) with Subetadex ([14]; listed as mitragynine): 0.065; Kstab with Sugammadex (phase solubility) ([15]; 24 h, CD 0–1 (m/v) %): 1150 M⁻¹; complexation efficacy (CE) with Sugammadex ([15]; phase solubility): 0.0431; Kstab with SBE-β-CD DS~6.5 (phase solubility) ([16]; 24 h, CD 0–1 (m/v) %): 480 M⁻¹; complexation efficacy (CE) with SBE-β-CD DS~6.5 ([16]; phase solubility): 0.0181; Kstab with SBE-β-CD DS~10.4 (phase solubility) ([17]; 24 h, CD 0–1 (m/v) %): 1020 M⁻¹; complexation efficacy (CE) with SBE-β-CD DS~10.4 ([17]; phase solubility): 0.0382; aqueous solubility [18]: 88 µg/mL |
